Test results: patent US20150148256A1, “BIOLUMINESCENCE IMAGING-BASED SCREENING ASSAY AND INHIBITORS OF ABCG2” (THE JOHNS HOPKINS UNIVERSITY, priority 2008, published 2015)
Counter-ions that a name gives are not always drawn. Like-named read-outs stand apart in the source and are kept apart here. One block for each molecule: values may come before it.

Target: T1, ABCG2 (Homo sapiens, UniProt Q9UNQ0)
T1 sequence (Q9UNQ0 1-655): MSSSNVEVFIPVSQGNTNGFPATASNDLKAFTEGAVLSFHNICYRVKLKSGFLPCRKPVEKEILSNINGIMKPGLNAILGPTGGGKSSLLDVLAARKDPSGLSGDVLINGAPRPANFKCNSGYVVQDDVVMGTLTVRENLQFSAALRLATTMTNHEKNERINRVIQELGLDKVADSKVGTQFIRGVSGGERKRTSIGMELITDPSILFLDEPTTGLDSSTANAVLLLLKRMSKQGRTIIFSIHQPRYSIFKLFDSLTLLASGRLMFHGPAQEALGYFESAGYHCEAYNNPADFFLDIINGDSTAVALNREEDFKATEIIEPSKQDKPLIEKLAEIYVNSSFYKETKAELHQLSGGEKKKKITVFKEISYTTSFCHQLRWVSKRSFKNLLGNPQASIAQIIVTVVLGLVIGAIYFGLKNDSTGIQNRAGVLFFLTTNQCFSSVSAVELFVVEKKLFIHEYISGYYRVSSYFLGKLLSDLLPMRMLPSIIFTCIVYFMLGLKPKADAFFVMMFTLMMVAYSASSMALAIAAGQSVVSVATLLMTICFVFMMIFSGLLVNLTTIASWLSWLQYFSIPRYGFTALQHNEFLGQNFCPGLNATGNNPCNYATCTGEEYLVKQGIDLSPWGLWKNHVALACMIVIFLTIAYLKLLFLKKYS
Assay: Bioluminescence imaging (BLI) assay in HEK293/ABCG2/fLuc cells
Method: HEK293/ABCG2/fLuc cells were plated into 96-well plates at a density of 4×10^4 cells/100 μL per well and were allowed to attach overnight. The following day, 10 μL of each compound or the control solvent was transferred from a compound library in a 96-well, high-throughput format into the wells using a multichannel pipette. […] Images were taken every 5 minutes for ˜1 h. Light output from each well was quantified at the 40 min time point after initiation of imaging, and the signal-to-background (S/B) ratio of the light output from each compound divided by that from the control well was calculated. This S/B ratio serves as an indicator of the potency of ABCG2 inhibition, the mechanism by which BLI signal is enhanced.
Images were taken every 5 min for ˜1 h, and light output from each well at the 40 min time point was chosen for quantification. The SB ratio of the light output from each compound divided by that from the control well was calculated. This ratio was used as an indicator of the potency of ABCG2 inhibition, the mechanism by which BLI signal is enhanced.
The BLI signal-enhancing effect of selected ABCG2 inhibitors was evaluated within the range of 0.001 μM-100 μM, with HEK293/ABCG2/fLuc cells and 50 μg/mL D-luciferin. The data obtained at 40 min after imaging commencement were chosen arbitrarily to be plotted (FIG. 3).

[1] = Table 2, HEK293/ABCG2/fLuc cells, compound approximately 17 μM, ~50 μg/mL D-luciferin, 40 min time point

Molecule: CN1C[C@H](C(=O)N[C@]2(C)O[C@@]3(O)[C@@H]4CCCN4C(=O)[C@H](Cc4ccccc4)N3C2=O)C[C@@H]2c3cccc4[nH]cc(c34)C[C@H]21 [dihydroergotamine mesylate]
Fold (BLI enhancement), previously unknown compounds (human): 9.6 fold
Fold (BLI enhancement, S/B ratio over control) (human): 9.6 fold

Molecule: CCCCCNC(=N)N/N=C/c1c[nH]c2ccc(OC)cc12 [tegaserod maleate]
Fold (BLI enhancement, S/B ratio over control) (human, 40 min, 17 μM): 3.1 fold

Molecule: CC(C)=CCC[C@]1(C)C=Cc2c(O)c3c(c(CC=C(C)C)c2O1)O[C@]12C(=C[C@@H]4C[C@H]1C(C)(C)O[C@@]2(C/C=C(/C)C(=O)O)C4=O)C3=O [gambogic acid]
Fold (BLI enhancement), previously unknown compounds (human, 40 min, 17 μM): 6.0 fold
Fold (BLI enhancement, S/B ratio over control) (human, 40 min, 17 μM): 6.0 fold

Molecule: COc1cc(-c2oc3cc(O)cc(O)c3c(=O)c2O)ccc1O [isorhamnetin]
Fold (BLI enhancement, S/B ratio over control) [1]: 7.0 fold
Fold (BLI enhancement), previously unknown compounds (Table 4, approximately 17 μM, 40 min time point): 7.0 fold

Molecule: COc1cc([S+](C)[O-])ccc1-c1nc2ncccc2[nH]1 (stereo not shown) [sulmazole]
Fold (BLI enhancement, S/B ratio over control) (human, 40 min, 17 μM): 3.0 fold

Molecule: Cc1cc(C(C)(C)CC(C)(C)C)ccc1OCCOCC[N+](C)(C)Cc1ccccc1.[Cl-] [methylbenzethonium chloride]
Fold (BLI enhancement, S/B ratio over control): 2.1 fold

Molecule: Cc1cc(O)c2c(=O)c3c(O)cc(O)c4c5c(O)cc(O)c6c(=O)c7c(O)cc(C)c8c1c2c(c34)c(c78)c65 [hypericin]
Fold (BLI enhancement, S/B ratio over control) (human): 3.3 fold

Molecule: CC[C@@]1(O)C[C@H](O[C@H]2C[C@H](N(C)C)[C@H](O)[C@H](C)O2)c2c(cc3c(c2O)C(=O)c2c(O)cccc2C3=O)[C@H]1C(=O)OC [aklavine hydrochloride]
Fold (BLI enhancement, S/B ratio over control) (human): 2.5 fold

Molecule: antimycin
Fold (BLI enhancement, S/B ratio over control) [1]: 2.3 fold

Molecule: CCCCC(CC)CNC(=N)NC(=N)NCCCCCCNC(=N)NC(=N)NCC(CC)CCCC (stereo not shown) [alexidine hydrochloride]
Fold (BLI enhancement, S/B ratio over control) (human, 40 min, 17 μM): 3.1 fold

Molecule: Cc1c(-c2cnccn2)ssc1=S [oltipraz]
Fold (BLI enhancement, S/B ratio over control) (human, 40 min, 17 μM): 3.2 fold

Other lines, results leading:

Fold (BLI enhancement), known compounds (human, 40 min, 17 μM): 6.1 fold
Fold (BLI enhancement, S/B ratio over control) (human, 40 min, 17 μM): 6.1 fold
Molecule: Cc1c(O)cccc1C(=O)N[C@@H](CSc1ccccc1)[C@H](O)CN1C[C@H]2CCCC[C@H]2C[C@H]1C(=O)NC(C)(C)C [nelfinavir mesylate]

Fold (BLI enhancement, S/B ratio over control) (human, 40 min, 17 μM): 2.9 fold
fold (BLI enhancement), additional previously known ABCG2 inhibitors (human, 40 min, 17 μM): 2.9 fold
Molecule: COC(=O)C1=C(C)NC(C)=C(C(=O)OCCN(C)Cc2ccccc2)C1c1cccc([N+](=O)[O-])c1 (stereo not shown) [nicardipine]

Fold (BLI enhancement, S/B ratio over control) (human, 40 min, 17 μM): 2.4 fold
Molecule: CN1CCCC(n2nc(Cc3ccc(Cl)cc3)c3ccccc3c2=O)CC1 (stereo not shown) [azelastine hydrochloride]

Fold (BLI enhancement, S/B ratio over control) (human, 40 min, 17 μM): 3.3 fold
Molecule: CCC(=O)O[C@]1(C(=O)CCl)[C@@H](C)C[C@H]2[C@@H]3CCC4=CC(=O)C=C[C@]4(C)[C@@]3(F)[C@@H](O)C[C@@]21C [clobetasol propionate]

Fold (BLI enhancement, S/B ratio over control) (human, 40 min, 17 μM): 4.2 fold
Molecule: CC(C)(C)c1ccc(C(O)CCCN2CCC(C(O)(c3ccccc3)c3ccccc3)CC2)cc1 (stereo not shown) [terfenadine]

fold (BLI enhancement), additional previously known ABCG2 inhibitors (human, 40 min, 17 μM): 4.1 fold
Molecule: C[C@]12CC[C@@H]3c4ccc(O)cc4CC[C@H]3[C@@H]1CCC2=O [estrone]

Fold (BLI enhancement, S/B ratio over control) (human, 40 min, 17 μM): 4.3 fold
Molecule: O=c1c(O)c(-c2ccc(O)cc2)oc2cc(O)cc(O)c12 [kaempferol]

Fold (BLI enhancement, S/B ratio over control) (human, 40 min, 17 μM): 2.1 fold
Molecule: C=C1C[C@@H]2[C@H](CC[C@]3(C)C(=O)CC[C@@H]23)[C@@]2(C)C=CC(=O)C=C12 [exemestane]

Fold (BLI enhancement, S/B ratio over control) (human, 40 min, 17 μM): 4.3 fold
Molecule: CCCn1c(=O)c2[nH]c(C3CCCC3)nc2n(CCC)c1=O [1,3-dipropyl-8-cyclopentylxanthine]

Fold (BLI enhancement, S/B ratio over control) [1]: 4.2 fold
Molecule: C[C@]12CC[C@@H]3c4ccc(O)cc4CC[C@H]3[C@@H]1CC[C@@H]2O [13-estradiol]

Fold (BLI enhancement), known compounds (human): 5.9 fold
Fold (BLI enhancement, S/B ratio over control) (human): 5.9 fold
Molecule: COC(=O)C1=C(C)NC(C)=C(C(=O)OCCCN2CCC(c3ccccc3)(c3ccccc3)CC2)[C@H]1c1cccc([N+](=O)[O-])c1 [niguldipine]
